The values that follow come from PMC9401038 (Angewandte Chemie (International Ed. in English), 2022).

Several values for one entry are separate records, joined by “and”; a condition that tells them apart may be missing. Equal entries are not always repeated.

As a reminder, the EC50 is the concentration that produces a half-maximal response. The low end stands for an effect from little substance, the high end for a need for much substance.

Data set [1] relates to zebrafish larvae cardiac rhythm. Put plainly: Cardiac frequency monitoring in zebrafish larvae under dark/380 nm/550 nm. As to conditions: 10 μM, 7 dpf larvae, dark and both illumination conditions equivalent. In kind it is in vivo.
A short description of data set [2]: UV/Vis photochemical characterization. In kind it is physicochemical.
In data set [3] the target is β1‐AR (Homo sapiens, UniProt P08588). Briefly: β1‐AR functional cAMP assay. In kind it is cell-based.
In data set [4] the target is β2‐AR (Homo sapiens, UniProt P07550). Put plainly: β2‐AR inhibition of cimaterol-stimulated cAMP in HEK293 H188 M1 cells. The note with it: in the dark and upon illumination at 380 nm, cimaterol 3 nM.
A short description of data set [5]: Photostationary state quantification by 1H‐NMR. The data set is classed as physicochemical. The note with it: 12 °C, 100 μM in D2O.
The mark [6] stands for this setting: 50 μM in Epac buffer+0.5 % DMSO, 25–28 °C.

β1‐AR, sequence (P08588 whole entry): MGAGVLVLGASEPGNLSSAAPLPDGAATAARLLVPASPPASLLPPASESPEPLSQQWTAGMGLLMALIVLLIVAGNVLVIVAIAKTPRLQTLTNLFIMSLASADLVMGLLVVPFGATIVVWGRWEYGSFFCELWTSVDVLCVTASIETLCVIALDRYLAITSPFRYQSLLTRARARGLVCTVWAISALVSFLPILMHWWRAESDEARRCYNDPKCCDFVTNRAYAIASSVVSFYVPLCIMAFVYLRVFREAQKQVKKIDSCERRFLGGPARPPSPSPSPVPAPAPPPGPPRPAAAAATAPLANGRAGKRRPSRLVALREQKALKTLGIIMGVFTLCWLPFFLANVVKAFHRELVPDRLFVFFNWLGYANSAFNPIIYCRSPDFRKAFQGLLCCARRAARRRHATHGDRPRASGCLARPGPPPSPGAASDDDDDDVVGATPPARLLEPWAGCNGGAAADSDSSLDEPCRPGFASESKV
β2‐AR, sequence (P07550 whole entry): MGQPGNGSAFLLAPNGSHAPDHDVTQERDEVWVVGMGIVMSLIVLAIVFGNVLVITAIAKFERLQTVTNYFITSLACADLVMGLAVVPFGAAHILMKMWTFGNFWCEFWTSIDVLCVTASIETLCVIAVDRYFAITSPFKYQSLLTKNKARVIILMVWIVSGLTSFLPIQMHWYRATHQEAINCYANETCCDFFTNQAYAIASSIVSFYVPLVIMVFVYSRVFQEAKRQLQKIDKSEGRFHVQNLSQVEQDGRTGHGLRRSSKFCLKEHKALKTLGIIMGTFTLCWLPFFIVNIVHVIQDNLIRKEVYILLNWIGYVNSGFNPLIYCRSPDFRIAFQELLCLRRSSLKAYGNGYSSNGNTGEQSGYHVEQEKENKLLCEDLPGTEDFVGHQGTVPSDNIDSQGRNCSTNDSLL

With `COc1ccccc1OCCNCC(O)COc1cccc2[nH]c3ccccc3c12` (stereo not drawn) [Carvedilol, carvedilol], the cardiac rhythm entry in data set [1] is listed as “significant reduction in the cardiac rhythm”.
For `CC(C)NC[C@H](O)COc1ccc(/N=N/c2ccccc2)cc1` [pAzo‐1], the τ cis→trans in data set [2] worked out at 57.6 s⁻¹. For the same compound, the “λ n‐π* (cis)” value in data set [2] (setting [6]) came to 430 nm. Also, the “λ π‐π* (trans)” value in data set [2] (setting [6]) came out at 346 nm. Further, in data set [2] (50 μM in Epac buffer+0.5 % DMSO, 28 °C, after 3 min 365 nm), the “t 1/2 (thermal relaxation of cis isomer)” value is 67.6 h. Also, the τ trans→cis in data set [2] (365 nm, CoolLED 5 % intensity (0.1 mW mm^−2), 50 μM in Epac buffer+0.5 % DMSO) was 4.4 s⁻¹. Besides, the concentration giving a half-maximal response (EC50) in data set [3] (EC50 DARK, dark (trans isomer)) is 15.1 nM; in data set [3] (EC50 LIGHT, constant violet light 380 nm (cis isomer)) it was 331 nM. The “β1/β2 ratio DARK” value in data set [3] (dark, ratio of 1 implies no selectivity towards β1‐AR) came out at 161.8. Moreover, the “functional profile towards β1‐AR” value in data set [3] (two β1‐AR expression levels) is “low efficacy partial agonists”. The “β1/β2 ratio LIGHT” value in data set [3] (violet light 380 nm, ratio of 1 implies no selectivity) was found to be 8.6. Moreover, in data set [3] (β1‐AR, relation between EC50 in light and dark), the “PPS (Photoinduced Potency Shift)” value was determined as 20.08. Moreover, the “IC50 values against β2‐AR” value in data set [4] is listed as “within the μM range”. In data set [5] (after 365 nm illumination), this compound came in with a PSS365 of 95 %cis. Also, in data set [5] (after 525 nm illumination), the PSS530 was 76.3 % trans and 76 % trans.
